In publication PMC10056899, “Neuroprotective and Antiherpetic Properties of Polyphenolic Compounds from Maackia amurensis Heartwood” (Molecules, 2023):
In brackets after ≈: the same amount, converted by molar mass. Several values for one entry are separate records, joined by “and”; a condition that tells them apart may be missing. Identical values can stand only once. Like-named read-outs stand apart in the source and are kept apart here.

Experiments:
[1] = tested on: HSV-1; experiment: Anti-HSV-1 activity, HSV-1 DNA level by real-time PCR (RT-PCR); assay type: cell-based, HSV-1 strain L2; conditions: 5 µg/mL, simultaneous treatment, 48 h; for 1, 4 and Maxar given on average
Description: The anti-HSV-1 activity of the polyphenolic compounds from M. amurensis was also studied using the real-time PCR (RT-PCR) technique (Figure 5 and Table S69, Supplementary Data). Vero cells were simultaneously infected with 100 TCD50/mL HSV-1 and treated with polyphenolic compounds 1–6 at concentrations of 50 and 5 μg/mL. After 48 h of cell incubation, viral DNA was extracted from the supernatants, and the relative level of HSV-1 DNA was determined using RT-PCR. The effect of stilbenes on the relative level of viral DNA was assessed by 2^−ΔCt method and reported as fold reduction relative to virus control, to which the value of 1.0 was assigned.
For the viral DNA extraction assay, Vero cells grown in 96-well plates were infected with HSV-1 and simultaneously treated with polyphenolic compounds and incubated at 37 °C in a CO2-incubator for 48 h. After incubation, the culture media and the cells scraped from the plate were transferred to centrifuge tubes. The cell debris was removed by centrifugation at 300× g for 10 min. Then, supernatant was collected and kept at −20 °C. The HSV-1 DNA was extracted from supernatant by using the AmpliSens® DNA-sorb-AM (K1-12-100-CE) nucleic acid extraction kit (Moscow, Russia) according to the manufacturer′s instructions. […]
The DNA HSV was detected in the obtained DNA samples using the AmpliSens® HSV I, II-FRT-100F PCR kit (Moscow, Russia) on a real-time PCR instrument Rotor-Gene Q (Qiagen, Hilden, Nordrhein-Westfalen, Germany) according to the manufacturer′s instructions. […] In the real-time PCR, the amplified product is detected with the use of fluorescent dyes. […] The threshold cycle number, Ct, was measured as the PCR cycle, where the amount of amplified target reached the threshold value. The reduction in the HSV-1 DNA levels in culture supernatants was assessed by the change in the threshold cycle (ΔCt) (Equation (4)):(4) ΔCt=Cttv−Ctcv where: • Cttv is the average Ct value for the infected samples after treatment with polyphenolic compounds; • Ctcv corresponds to the average Ct value for the virus control. […]

[2] = tested on: HSV-1; experiment: Anti-HSV-1 activity, cytopathic effect (CPE) inhibition assay in Vero cells; assay type: cell-based, HSV-1 strain L2; conditions: for IC50: read-out: IC50 (CPE assay); for SI = CC50/IC50: Vero cells, HSV-1
Description: (§1) The HSV-1 strain L2 and Vero cell culture (kidney epithelial cells of the African green monkey Chlorocebus sp.) were obtained from the N.F. Gamaleya Federal Research Centre for Epidemiology and Microbiology (Moscow, Russia). HSV-1 was grown in Vero cells, using Dulbecco′s Modified Eagle′s Medium (DMEM, Biolot, St. Petersburg, Russia) supplemented with 10% fetal bovine serum (FBS, Biolot, St. Petersburg, Russia) and 100 U/mL of gentamycin (Dalkhimpharm, Khabarovsk, Russia), at 37 °C in a CO2 incubator. In the maintenance medium, the FBS concentration was decreased to 1%.
(§2) The tested compounds were dissolved in DMSO (Sigma, St. Louis, MO, USA) at a concentration 10 mg/mL and stored at −20 °C. For cytotoxicity and anti-HSV-1 activity determination, the stock solutions were diluted with DMEM so that the final concentration of DMSO was 0.5%.
The anti-HSV-1 activity of stilbenes was evaluated using cytopathic effect (CPE) inhibition assay in Vero cells. We infected the monolayer of cells grown in 96-well plates (1 × 10^4 cells/well) with 100 µL/well of virus suspension (100 TCD50/mL) and we simultaneously treated it with stilbenes 1–6 (100 µL/well) at various concentrations (from 1 to 400 μg/mL) for one hour at 37 ◦C. After virus absorption, we removed the mixture of virus and stilbenes, washed the cells, and added the maintenance medium with 1% FBS. […] We used MTT assay to evaluate the antiviral activity of stilbenes. The viral inhibition rate (IR, %) was calculated according to Equation (3):(3) IR, %=Atv−Acv/Acd−Acv×100, where: • Atv is the absorbance of cells infected with virus and treated with a polyphenolic compound; • Acv is the absorbance of the untreated virus-infected cells; • Acd is the absorbance of control (untreated and non-infected) cells.
The selectivity index (SI) was calculated as the ratio of CC50 to IC50. Experiments were repeated three times.

[3] = Cytotoxicity against Vero cells (MTT assay); assay type: cell-based; conditions: African green monkey (Chlorocebus sp.)
Description: as §1, §2
The cytotoxicity evaluation of the studied compounds was performed using the MTT assay, as described previously. In brief, confluent Vero cells in 96-well microplates (1 × 10^4 cells/well) were incubated with tested compounds at various concentrations (1–500 μg/mL) at 37 °C for 48 h (5% CO2). Untreated cells were used as controls. Then, MTT solution (methylthiazolyltetrazolium bromide, Sigma, St. Louis, MO, USA) was added to cells at a concentration of 5 mg/mL and the cells were incubated at 37 °C for 2 h. After dissolution of formazan crystals, optical densities were read at 540 nm (Labsystems Multiskan RC, Vantaa, Finland). […] [42]. Experiments were performed in triplicate and repeated three times.

[4] = DPPH radical scavenging assay; conditions: 20 min; for IC50: read-out: DPPH Scavenging Effect IC50
Description: The DPPH (2,2-diphenyl-1-picrylhydrazyl) scavenging effect of polyphenolic compounds 1-6 from M. amurensis heartwood was evaluated as described previously in [40]. Stilbenes were added to DPPH solution in MeOH (10^−4 M) at a concentration range from 1 to 34 µM. The mixture was kept in the dark at room temperature for 20 min. Then, we measured the absorbance at 517 nm using a Shimadzu UV 1240 spectrophotometer (Shimadzu, Kyoto, Japan). The DPPH radical-scavenging effect (%) of the stilbenes was calculated using Equation (1): (1) DPPH scavenging effect, %=A0−Ax/A0×100, where: • A0 is the absorbance of DPPH solution without polyphenolic compounds (blank sample); • Ax is the absorbance of DPPH solution in the presence of different concentrations of polyphenolic compounds.
Quercetin and ascorbic acid were used as reference compounds. All experiments were performed in triplicate. The half maximal inhibitory concentration (IC50) for polyphenolic compounds was calculated by plotting the DPPH scavenging effect (%) against the concentrations of polyphenolic compounds. IC50 values are given as the mean ± SEM.

[5] = Ferric reducing antioxidant power (FRAP) assay; conditions: 4 min, pH 3.6
Description: The FRAP assay was carried out as described in [41]. We prepared FRAP reagent by mixing 2.5 mL of TPTZ (2,4,6-tris(2-pyridyl)-s-triazine) solution (10 mM) in 40 mM HCl and […] of FeCl3 solution (20 mM) in acetate buffer solution (300 mM, pH 3.6). Then, we added stilbenes 1–6 to 3 mL of FRAP reagent at concentrations from 1 to 34 µM. The mixture was kept in the dark at room temperature for 4 min. Then, we measured the absorbance at 595 nm using a Shimadzu UV 1240 spectrophotometer. Equation (2) was used to calculate the FRAP values of stilbenes 1–6:(2) FRAP=CFe/Cx, where: • CFe is the concentration of Fe^2+ (µM) formed in the reaction; • Cx is the concentration of polyphenolic compounds in the reacting mixture.
The concentration of Fe^2+ (µM) formed in the reaction was determined using the calibration curve obtained for different concentrations of FeSO4·7H2O.

[6] = tested on: PQ-treated Neuro-2a cells; experiment: PQ-induced neurotoxicity model, cell viability (MTT assay); assay type: cell-based, murine; conditions: 10, 1, 0.1 μM, PQ 1 mM
Description: After 24 h of adhesion, we treated Neuro-2a cells (1 × 10^4 cells/well) with stilbenes (0.01–10 μM) for 1 h and added 1 mM of PQ (Sigma-Aldrich, St. Louis, MO, USA). Cells incubated without PQ or with PQ were used as positive and negative control, respectively. After 24 h, we measured the cell viability using MTT assay. The results are presented as percentages of the positive control value.

[7] = tested on: PQ-treated Neuro-2a cells; experiment: Intracellular ROS level in PQ-treated cells (H2DCF-DA); assay type: cell-based, murine; conditions: 10, 1, 0.1 μM
Description: After 24 h of adhesion, Neuro-2a cells (1 × 10^4 cells/well) were incubated with stilbenes (0.01–10 µM) for 1 h. After that, we added PQ (1 mM) to each well and incubated the cells for 3 h. To study ROS formation, we added 20 µL of 2,7-dichlorodihydrofluorescein diacetate solution ([…], H2DCF-DA, Molecular Probes, Eugene, OR, USA) to each well, so that the concentration was 10 µM, and kept the microplate in a CO2–incubator for additional 30 min at 37 °C.

[8] = tested on: PQ-treated Neuro-2a cells; experiment: Mitochondrial membrane potential in PQ-treated cells (TMRM); assay type: cell-based, murine; conditions: 10 μM
Description: […] Then, we added PQ (500 μM) and kept the cell suspension in a CO2-incubator for 1 h. Cells incubated without PQ and stilbenes and with PQ only were used as positive and negative control, respectively. We added the tetramethylrhodamine methyl (TMRM) (Sigma-Aldrich, St. Louis, MO, USA) solution (500 nM) to each well and kept the cells for 30 min in a CO2-incubator at 37 °C. The intensity of fluorescence was measured with a PHERAstar […] reader (BMG Labtech, Ortenberg, Germany) at λex = 540 nm and λem = 590 nm. We processed the data by MARS Data Analysis v. 3.01R2 (BMG Labtech, Ortenberg, Germany) and presented the results as percentages of the positive control value.

[9] = Human alphaherpesvirus 1, added to Vero cells simultaneously with the virus, 100 TCD50/mL

SMILES	Reduction of relative level of HSV-1 DNA relative to virus control [1]	IC50 [2, 9]	SI = CC50/IC50 [2]	CC50 at 48 h [3]	DPPH Scavenging Effect IC50 [4]	IC50 [4]	FRAP CFe2+(µM)/Cpolyphenolic compound (µM) [5]	FRAP CFe2+(µM)/Cpolyphenolic compound (μkg/mL) [5]	Effect on viability of PQ-treated cells [6]	IC50 ([2]; Human alphaherpesvirus 1, Vero)	Effect on ROS level in PQ-treated cells [7]	Increase of mitochondrial membrane potential compared to PQ-treated cells [8]
Nc1nc2c(ncn2COCCO)c(=O)[nH]1 [Acyclovir, reference compound]	4 log10	2.1 µg/mL and 9.3 µM	430	> 1000 µg/mL and > 4 mM								
O=C1O[C@H]([C@@H](O)CO)C(O)=C1O [Ascorbic acid, reference compound]					5.83 ± 0.49 µg	33.1 ± 2.8 µM	3.58 ± 0.29 CFe2+(µM)/Cpolyphenolic compound (µM)	20.34 ± 0.16 CFe2+(µM)/Cpolyphenolic compound (μkg/mL)				
Oc1cc(O)cc(/C=C/c2ccc(O)c(O)c2)c1 [Compound 2, piceatannol]		22 µg/mL and 90.2 µM	11.4 ± 1.4	250 ± 30 µg/mL (≈ 1020 µM)	1.05 ± 0.12 µg	4.3 ± 0.5 µM	15.71 ± 1.43 CFe2+(µM)/Cpolyphenolic compound (µM)	64.38 ± 5.86 CFe2+(µM)/Cpolyphenolic compound (μkg/mL)	did not show any effect			
COc1ccc(-c2coc3c4c(ccc3c2=O)OC(c2cc(O)cc(O)c2)C(c2ccc(O)c(O)c2)O4)cc1 (stereo not drawn) [Compound 5, maackiasine]			6.6 and 6.6 ± 0.8	156 µg/mL and 297 µM	1.32 ± 0.16 µg	2.5 ± 0.3 µM	2.50 ± 0.38 CFe2+(µM)/Cpolyphenolic compound (µM)	4.75 ± 0.72 CFe2+(µM)/Cpolyphenolic compound (μkg/mL)	did not show any effect	23.7 µg/mL and 45 µM		
COc1cc([C@@H]2c3c(O)cc(O)cc3[C@@H]3[C@H]2CO[C@@H]3c2ccc(O)c(O)c2)cc(OC)c1O [Compound 6, maackolin]			6.4 and 6.4 ± 0.8	256 µg/mL and 567 µM	0.90 ± 0.14 µg	2 ± 0.3 µM		51.11 ± 5.86 CFe2+(µM)/Cpolyphenolic compound (μkg/mL)		40.2 µg/mL and 88.9 µM	did not decrease the ROS level	9%
O=c1c(O)c(-c2ccc(O)c(O)c2)oc2cc(O)cc(O)c12 [Quercetin, reference compound]					2.81 ± 0.12 µg	9.3 ± 0.4 µM	5.53 ± 0.55 CFe2+(µM)/Cpolyphenolic compound (µM)	18.3 ± 1.82 CFe2+(µM)/Cpolyphenolic compound (μkg/mL)				
